# Assay results published in ChEMBL document CHEMBL3259529, “Strychnobaillonine, an unsymmetrical bisindole alkaloid with an unprecedented skeleton from Strychnos icaja roots” (J Nat Prod, 2014).
# pIC50: −log10 of the molar value.
# Key:
# Plasmodium falciparum = experiment: Antiplasmodial activity against chloroquine-sensitive Plasmodium falciparum 3D7 assessed as growth inhibition by lactate dehydrogenase assay; format: functional, organism-based
# WI-38 = experiment: Cytotoxicity against human WI38 cells assessed as cell viability by WST-1 assay; format: cell-based
# [1] = Selectivity index, ratio of IC50 for human WI38 cells to IC50 for chloroquine-sensitive Plasmodium falciparum 3D7; format: toxicity, cell-based, WI-38; conditions: read-out: Ratio IC50
SMILES,IC50 (Plasmodium falciparum) [µg/mL],IC50 (WI-38) [µg/mL],pIC50 (Plasmodium falciparum),IC90 (Plasmodium falciparum) [µg/mL],selectivity ratio [1]
C[C@@H]1CC[C@H]2[C@@H](C)C(=O)O[C@@H]3O[C@@]4(C)CC[C@@H]1[C@]32OO4 [ARTEMISININ],0.01,–,–,–,–
CC[C@@]1(O)C(=O)OCc2c1cc1n(c2=O)Cc2cc3ccccc3nc2-1 [CAMPTOTHECIN],–,0.03,–,–,–
C/C=C1/CN2[C@@H](C3=C[C@@H]4[C@@H]5N(C3=O)c3ccccc3[C@@]53CCN5C/C(=C/C)[C@@H]4C[C@H]53)C[C@@]34c5ccccc5N5C6=C7[C@H]8C[C@@H]9N(CC[C@@]9%10c9ccccc9N(C6=C([C@H]1C[C@H]23)[C@H]54)[C@@H]7%10)C/C8=C/C,–,< 5,6.22,1.6,< 10.1
C/C=C1/CN2CC[C@]34c5ccccc5N5C(=O)[C@H]6[C@@H](O)[C@H]7[C@@H]8N(c9ccccc9[C@@]89CCN8C/C(=C/C)[C@@H]7C[C@H]89)[C@@H]6[C@H]([C@H]53)[C@H]1C[C@H]24,–,> 10,5.96,2.6,> 14
